Measurements taken from ChEMBL document CHEMBL1134909, “A 5-fluorodeoxyuridine prodrug as targeted therapy for prostate cancer” (Bioorg Med Chem Lett, 2002).
*1 amine or outer side, *2 acyl side, *3 side chain or, on linkers, in order; H or OH if unused. Where a SMILES comes first, the peptide text is derived from it. [ ]: non-standard residue; d: D form. The star is where a group is joined. X1 = O=c1[nH]c(=O)n([C@H]2C[C@H](O)[C@@H](CO*)O2)cc1F; Morpholide = C1CN(*)CCO1; Aib = CC(C)(N)C(=O)O; CO = O=C([*:1])[*:2]

Key:
TSU = experiment: Cytotoxic concentration in non prostate specific antigen (PSA) producing human TSU cells; type: functional, cell-based
LNCaP = experiment: Cytotoxic concentration in prostate specific antigen (PSA) producing human LNCaP cells; type: functional, cell-based

SMILES | IC50 (TSU) [nM] | IC50 (LNCaP) [nM]
O=c1[nH]c(=O)n([C@H]2C[C@H](O)[C@@H](CO)O2)cc1F [FLOXURIDINE] | 58 | 69.2
CC(C)C[C@H](NC(=O)[C@H](CCCCN)NC(=O)[C@H](CO)NC(=O)[C@H](CO)NC(=O)[C@H](Cc1c[nH]cn1)NC(=O)N1CCOCC1)C(=O)N[C@@H](CCC(N)=O)C(=O)N[C@@H](CC(C)C)C(=O)NC(C)(C)C(=O)OC[C@H]1O[C@@H](n2cc(F)c(=O)[nH]c2=O)C[C@@H]1O ({Morpholide-CO}-HSSKLQL[Aib]-X1) | 7200 | 117
